The source of these data is patent US4126606A, “Physiologically active peptides and a process for preparation thereof” (Zaidan Hojin Biseibutsu Kagaku Kenkyu Kai, priority 1976, dated 1978).

The nature of the test: ID50 determination of amastatin preparations (inhibitory activity). The class given is biochemical.
amastatin A3 returned an ID50 of 1.0 µg/mL.

amastatin B2 came in with an ID50 of 1.0 µg/mL.

For amastatin RB1, the ID50 was determined as 1.50 µg/mL.

The substance amastatin A2 displayed an ID50 of 0.54 µg/mL.

Regarding amastatin A2 dimethyl ester, the ID50 stood at 17 µg/mL.

In turn, amastatin A1 came in with an ID50 of 0.65 µg/mL.

Take N-acetyl amastatin A2: the ID50 was 450 µg/mL.

For “hydrochloric acid salt of amastatin A1 [HCl A1]”, the ID50 was 0.75 µg/mL.
